The test system of series [1] is ADP-induced platelet aggregation in human PRP. Nature of the series: Human platelet aggregation inhibition test. In kind it is cell-based. The note with it: ADP 1×10^−5 M. The protocol: Human Platelet Aggregation Inhibition Test
Blood collected from healthy human volunteers into aqueous trisodium citrate solution was centrifuged at 200×g for 10 minutes and the upper layer was recovered to obtain platelet-rich plasma (PRP). The residual blood containing trisodium citrate added therein was centrifuged at 1500×g for 10 minutes and the supernatant was collected as platelet-poor plasma (PPP). The number of platelets in the PRP was adjusted to about 300,000/μl by PPP. Platelet aggregation was measured by an aggregometer. 180 μl of PRP was added to cuvettes and incubated at 37° C. for one minute, and then 10 μl of test compound solution (prepared by dissolving a test compound with a 1.5-fold mole of a sodium hydroxide solution and diluting with water) was added and the mixture was further incubated for 2 minutes. Then, 10 μl of aqueous adenosine diphosphate (ADP) solution was added to adjust the final concentration as 1×10^−5 M and platelet aggregation was induced and observed for 7 minutes. Inhibition percentage of aggregation was calculated from the percentage of aggregation upon the addition of the test compound to the percentage of aggregation upon the addition of water in place of the test compound solution (control).

Series [2] addresses T1, PGI2 receptor (human platelet membrane, 3H-Iloprost binding) (Homo sapiens, UniProt P43119).
T1 construct: Human platelet membrane of 100 μg protein was suspended; from tissue; host or cells: human platelet membrane
The series is described as follows: 3H-Iloprost binding inhibition test to human platelet membrane. The note with it: compound 1 μM, 5 nM 3H-Iloprost, 37° C., 10 minutes. The protocol:
^3H-Iloprost Binding Inhibition Test to Human Platelet Membrane
The platelet membrane was collected on a glass filter and its radioactivity was measured after washing four times with 50 mM Tris-HCl buffer.

For series [3], the system named is mice. The series is described as follows: Single-dose toxicity test in mice. In kind it is in vivo. As to conditions: oral, 10, 30 or 100 mg/kg. How it is done: Singl-Dose Toxicity Test in Mice
The compound of Example 42 was orally administered to mice (including three mice in a group) at a dose of 10, 30 or 100 mg/kg.

Consider eight compounds from US7205302B2, “Heterocyclic compound derivatives and medicines” (Nippon Shinyaku Co., Ltd., priority 2001, dated 2007).

Structures are written as SMILES. Structures can show the parent of a compound that is named as a salt.

In general, IC50 refers to the concentration needed to halve the response being measured. Lower therefore signals inhibition by little substance. A word on the melting point: it is the temperature of the solid-liquid transition.

T1 sequence (P43119 whole entry): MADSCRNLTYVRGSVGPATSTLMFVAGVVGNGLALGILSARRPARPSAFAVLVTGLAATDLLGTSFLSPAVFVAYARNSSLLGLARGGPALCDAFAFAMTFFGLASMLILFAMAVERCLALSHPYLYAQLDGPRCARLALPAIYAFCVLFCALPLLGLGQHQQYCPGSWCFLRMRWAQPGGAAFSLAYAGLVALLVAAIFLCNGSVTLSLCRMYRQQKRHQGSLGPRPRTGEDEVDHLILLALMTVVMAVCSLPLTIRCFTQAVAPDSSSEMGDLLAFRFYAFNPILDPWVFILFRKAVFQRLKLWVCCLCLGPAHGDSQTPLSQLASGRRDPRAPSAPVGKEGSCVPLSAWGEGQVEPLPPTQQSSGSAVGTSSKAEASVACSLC

`CN(CCCCOCC(=O)O)c1c[n+]([O-])c(-c2ccccc2)c(-c2ccccc2)n1` [Example 73, 2,3-diphenyl-5-{N-[4-(carboxymethoxy)butyl]-N-methylamino}pyrazine 1-oxide] showed a melting point of 185 to 190 °C. Also, the IC50 in series [1] was 200 nM.
For the compound `CN(CCCCOCC(=O)O)c1ccc(-c2ccccc2)c(-c2ccccc2)n1` [Example 46, 2-{4-[N-(5,6-diphenylpyridin-2-yl)-N-methylamino]butyloxy}acetic acid sodium salt], in series [1], the IC50 was found to be 500 nM.
The compound `Cc1ccc(-c2nnc(N(CCCCOCC(=O)O)C(C)C)nc2-c2ccc(C)cc2)cc1` [Example 48, 2-{4-[N-(5,6-di-p-tolyl-1,2,4-triazin-3-yl)-N-isopropylamino]butyloxy}acetic acid] displayed a melting point of 119 to 121 °C. Besides, half-maximal inhibition in series [1] (IC50) required 400 nM.
As for `CN(CCCCOCC(=O)O)c1ncc(-c2ccccc2)c(-c2ccccc2)n1` [Example 74, 2-{4-[N-(4,5-diphenylpyrimidin-2-yl)-N-methylamino]butyloxy}acetic acid], the IC50 in series [1] turned out to be 800 nM.
Regarding `CN(CCCCOCC(=O)O)c1cnc(-c2ccccc2)c(-c2ccccc2)n1` [Example 64, 2-{4-[N-(5,6-diphenylpyrazin-2-yl)-N-methylamino]butyloxy}acetic acid], the “inhibition of binding of 3H-Iloprost” value in series [2] stood at 85%.
`CC(C)N(CCCCSCC(=O)O)c1cnc(-c2ccccc2)c(-c2ccccc2)n1` [Example 78, 2-{4-[N-(5,6-diphenylpyrazin-2-yl)-N-isopropylamino]butylthio]acetic acid sodium salt] returned an IC50 in series [1] of 300 nM.
On the same count and under the same terms, to `Cc1ccc(-c2cnc(N(C)CCCCOCC(=O)O)nc2-c2ccc(C)cc2)cc1` [Example 75, 2-{4-[N-(4,5-di-p-tolylpyrimidin-2-yl)-N-methylamino]butyloxy}acetic acid] belongs 200 nM.
Take `CC(C)N(CCCCOCC(=O)O)c1cnc(-c2ccccc2)c(-c2ccccc2)n1` [Example 42, 2-{4-[N-(5,6-diphenylpyrazin-2-yl)-N-isopropylamino]butyloxy}acetic acid]: in series [1], the IC50 worked out at 200 nM. Besides, the “deaths after single oral dose” value in series [3] was “no deaths”.
